Results taken from patent US20230099293A1, “OGA INHIBITOR COMPOUNDS” (priority 2019, published 2023).

Tests used:
hOGA = molecular target: T1, hOGA (Homo sapiens, UniProt O60502); test: OGA cellular assay (ICC detection of O-GlcNAcylated proteins in HEK293 cells inducible for P301L mutant human Tau); type: cell-based; design: Emax: dose or concentration left out as unconfirmed; settings: for EC50: Cellular hOGA, pEC50, Table 5, HEK293 P301L Tau cells, 6 hours incubation, O-GlcNAcylation readout; for Emax: HEK293, read-out: Cellular Emax (%)
T1 construct: endogenous in cells; host or cells: HEK293 cells inducible for P301L mutant human Tau (isoform 2N4R)
T1 sequence (O60502 1-916): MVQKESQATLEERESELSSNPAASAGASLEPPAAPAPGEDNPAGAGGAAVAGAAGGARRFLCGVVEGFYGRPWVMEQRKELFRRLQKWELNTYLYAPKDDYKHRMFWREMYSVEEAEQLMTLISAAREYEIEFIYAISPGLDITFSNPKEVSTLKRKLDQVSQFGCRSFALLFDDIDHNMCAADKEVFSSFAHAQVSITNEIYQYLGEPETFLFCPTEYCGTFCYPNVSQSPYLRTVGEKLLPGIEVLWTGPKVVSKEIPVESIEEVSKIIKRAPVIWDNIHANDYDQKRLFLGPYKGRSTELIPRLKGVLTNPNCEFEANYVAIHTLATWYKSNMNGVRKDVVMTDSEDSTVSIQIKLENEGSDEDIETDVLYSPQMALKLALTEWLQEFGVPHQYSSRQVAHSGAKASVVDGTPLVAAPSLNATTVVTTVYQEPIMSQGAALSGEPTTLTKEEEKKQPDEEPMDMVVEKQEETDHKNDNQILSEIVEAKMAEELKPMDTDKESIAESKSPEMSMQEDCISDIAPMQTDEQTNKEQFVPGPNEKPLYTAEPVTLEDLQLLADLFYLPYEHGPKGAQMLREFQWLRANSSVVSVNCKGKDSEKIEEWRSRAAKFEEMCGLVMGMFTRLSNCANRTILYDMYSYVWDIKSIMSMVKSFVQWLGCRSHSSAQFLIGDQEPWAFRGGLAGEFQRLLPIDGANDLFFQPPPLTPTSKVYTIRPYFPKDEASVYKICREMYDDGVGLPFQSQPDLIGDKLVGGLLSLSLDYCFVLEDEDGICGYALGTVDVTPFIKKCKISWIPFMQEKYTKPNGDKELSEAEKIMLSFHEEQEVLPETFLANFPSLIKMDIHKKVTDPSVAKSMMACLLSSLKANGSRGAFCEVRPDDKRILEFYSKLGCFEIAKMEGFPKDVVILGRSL
Experimental: HEK293 cells inducible for P301L mutant human Tau (isoform 2N4R) were established at Janssen. Thiamet-G was used for both plate validation (high control) and as reference compound (reference EC50 assay validation). OGA inhibition is evaluated through the immunocytochemical (ICC) detection of O-GlcNAcylated proteins by the use of a monoclonal antibody (CTD110.6; Cell Signaling, #9875) detecting O-GlcNAcylated residues as previously described (Dorfmueller et al. 2010 Chemistry & biology, 17:1250). Inhibition of OGA will result in an increase of O-GlcNAcylated protein levels resulting in an increased signal in the experiment. Cell nuclei are stained with Hoechst to give a cell culture quality control and a rough estimate of immediate compounds toxicity, if any. ICC pictures are imaged with a Perkin Elmer Opera Phenix plate microscope and quantified with the provided software Perkin Elmer Harmony 4.1.
Cells were propagated in DMEM high Glucose (Sigma, #D5796) following standard procedures. 2 days before the cell assay cells are split, counted and seeded in Poly-D-Lysine (PDL) coated 96-wells (Greiner, #655946) plate at a cell density of 12,000 cells per cm^2 (4,000 cells per well) in 100 μl of Assay Medium (Low Glucose medium is used to reduce basal levels of GlcNAcylation) (Park et al. 2014 The Journal of biological chemistry 289:13519). At the day of compound test medium from assay plates was removed and replenished with 90 μl of fresh Assay Medium. 10 μl of compounds at a 10 fold final concentration were added to the wells. Plates were centrifuged shortly before incubation in the cell incubator for 6 hours. DMSO concentration was set to 0.2%. Medium is discarded by applying vacuum. For staining of cells medium was removed and cells washed once with 100 μl D-PBS (Sigma, #D8537). From next step onwards unless other stated assay volume was always 50 μl and incubation was performed without agitation and at room temperature. Cells were fixed in 50 μl of a 4% paraformaldehyde (PFA, Alpha aesar, #043368) PBS solution for 15 minutes at room temperature. […] Before analysis samples were washed 2 times manually for 5 minutes in ICC base buffer.
Imaging is performed using Perkin Elmer Phenix Opera using a water 20× objective and recording 9 fields per well. Intensity readout at 488 nm is used as a measure of O-GlcNAcylation level of total proteins in wells. To assess potential toxicity of compounds nuclei were counted using the Hoechst staining. IC50-values are calculated using parametric non-linear regression model fitting. As a maximum inhibition Thiamet Gat a 200 uM concentration is present on each plate. In addition, a concentration response of Thiamet G is calculated on each plate.

[1] = molecular target: T2, recombinant human Meningioma Expressed Antigen 5 (MGEA5), also referred to as O-GlcNAcase (OGA) (Homo sapiens, UniProt O60502); test: OGA biochemical assay (inhibition of FM-GlcNAc hydrolysis, fluorescence); settings: for IC50: Enzymatic hOGA, pIC50, Table 5, full length OGA 2 nM, FM-GlcNAc 100 uM, 6 h at room temperature; for Emax: read-out: Enzymatic Emax (%)
T2 construct: Full length OGA enzyme was purchased at OriGene (cat #TP322411); purchased OriGene TP322411
T2 sequence (O60502 1-916): T1 sequence (O60502 1-916)
Experimental: The hydrolysis FM-GlcNAc (Marker Gene technologies, cat #M1485) results in the formation of β-D-N-glucosamineacetate and fluorescein. The fluorescence of the latter can be measured at excitation wavelength 485 nm and emission wavelength 538 nm. An increase in enzyme activity results in an increase in fluorescence signal. Full length OGA enzyme was purchased at OriGene (cat #TP322411). The enzyme was stored in 25 mM Tris.HCl, pH 7.3, 100 mM glycine, 10% glycerol at −20° C. […] The assay was performed in 200 mM Citrate/phosphate buffer supplemented with 0.005% Tween-20. 35.6 g Na2HIPO42H2O (Sigma, #C0759) were dissolved in 1 L water to obtain a 200 mM solution. […] The buffer to stop the reaction consists of a 500 mM Carbonate buffer, pH 11.0. […] OGA was used at a 2 nM concentration and FM-GlcNAc at a 100 uM final concentration. Dilutions were prepared in assay buffer.
Plates were pre-incubated for 60 min at room temperature and then 2 μl FM-GlcNAc substrate mix added. […] Plates were briefly centrifuged for 1 min at 1000 rpm and incubate at room temperature for 6 h. To stop the reaction 5 μl STOP buffer were added and plates centrifuge again 1 min at 1000 rpm. Fluorescence was quantified in the Thermo Scientific Fluoroskan Ascent or the PerkinElmer EnVision with excitation wavelength 485 nm and emission wavelength 538 nm.
For analysis a best-fit curve is fitted by a minimum sum of squares method. From this an IC50 value and Hill coefficient was obtained. High control (no inhibitor) and low control (saturating concentrations of standard inhibitor) were used to define the minimum and maximum values.

Row | Compound | EC50 (hOGA) [nM] | Emax (hOGA) [%] | IC50 [1] [nM] | Emax [1] [%] | melting point [°C]
1 | [2H]C([2H])([2H])N(C(=O)Cn1cnc2c(Nc3c(C)cc(C(F)(F)F)cc3C)nccc21)C([2H])([2H])[2H] [Compound 53] | 135 | 87 | 7.24 | 103 | 208.2
2 | CCCCn1cnc2c(Nc3c(C)cc(F)cc3C)nccc21 [Compound 57] | 513 | 62 | 53.7 | 99 | 184.45
3 | Cc1cc(C(F)(F)F)cc(C)c1Nc1nccc2c1ncn2Cc1ccon1 [Compound 59, N-(2,6-dimethyl-4-(trifluoromethyl)phenyl)-1-(isoxazole-3-ylmethyl)-1H-imidazo[4,5-c]pyridine-4-amine] | – | 72 | 9.12 | 101 | 154.7
4 | Cc1cc(C(F)(F)F)cc(C)c1Nc1nccc2c1ncn2-c1ccc(F)cn1 [Compound 60, N-(2,6-Dimethyl-4-(trifluoromethyl)phenyl)-1-(5-fluoropyridin-2-yl)-1H-imidazo[4,5-c]pyridin-4-amine] | 933 | 44 | 117 | 100 | 186.5
5 | Cc1cc(C(F)(F)F)cc(C)c1Nc1nccc2c1ncn2CC(=O)N(C)C [Compound 61, 2-(4-((2,6-Dimethyl-4-(trifluoromethyl)phenyl)amino)-1H-imidazo[4,5-c]pyridin-1-yl)-N,N-dimethylacetamide] | 107 | 87 | 9.33 | 98 | 207.65
6 | Cc1cc(C(F)(F)F)cc(C)c1Nc1ncc(Cl)c2c1ncn2CC(=O)N(C)C [Compound 62, 2-[7-Chloro-4-[2,6-dimethyl-4-(trifluoromethyl)anilino]imidazo[4,5-c]pyridin-1-yl]-N,N-dimethyl-acetamide] | > 1000 | 13 | 692 | 91 | 239.9
7 | CCN(C)C(=O)Cn1cnc2c(Nc3c(C)cc(C(F)(F)F)cc3C)nccc21 [Compound 63, 2-[4-[2,6-Dimethyl-4-(trifluoromethyl)anilino]imidazo[4,5-c]pyridin-1-yl]-N-ethyl-N-methyl-acetamide] | 89.1 | 100 | 9.33 | 98 | 186.5
8 | Cc1cc(C(F)(F)F)cc(C)c1Nc1nccc2c1cnn2CC(=O)N(C)C [Compound 64, 2-[4-[2,6-Dimethyl-4-(trifluoromethyl)anilino]pyrazolo[4,3-c]pyridin-1-yl]-N,N-dimethyl-acetamide] | 234 | 78 | 42.7 | 101 | 196.5
9 | Cc1ccnc(C(C)C)c1Nc1nccc2c1cnn2CC(=O)N(C)C [Compound 65, 2-[4-[(2-Isopropyl-4-methyl-3-pyridyl)amino]pyrazolo[4,3-c]pyridin-1-yl]-N,N-dimethyl-acetamide] | > 1000 | 24 | 174 | 97 | 211.5
